Bridge positions count the residues as written; N and C are the ends. Square brackets hold non-standard residues; d marks the D form. Peptide text beside a SMILES is read from it. NMeF = CN[C@@H](Cc1ccccc1)C(=O)O; NMeNle = CCCC[C@H](NC)C(=O)O; NMeA = CN[C@@H](C)C(=O)O; Sar = CNCC(=O)O
Experiments:
PD-L1 [1] = experiment: differential scanning fluorimetry; type: binding; conditions: DSF; for melting temperature of PD-L1 (Tm): PD-L1 alone Tm 37.6°C; for stabilization of PD-L1 against thermal induced unfolding: relative to PD-L1 alone (Tm 37.6°C)
PD-L1 [2] = experiment: X-ray crystallography of PD-L1/peptide complexes; type: binding; conditions: crystal structures of PD-L1/peptide-71 (2.5 Å) and PD-L1/peptide-57 (below 1 Å)

Q: `CCCC[C@H]1C(=O)N(C)[C@@H](CCCC)C(=O)N[C@@H](CCCNC(=N)N)C(=O)N[C@H](C(=O)NCC(N)=O)CSCC(=O)N[C@@H](Cc2ccccc2)C(=O)N(C)[C@@H](C)C(=O)N[C@@H](CC(N)=O)C(=O)N2CCC[C@H]2C(=O)N[C@@H](Cc2c[nH]cn2)C(=O)N[C@@H](CC(C)C)C(=O)N(C)CC(=O)N[C@@H](Cc2c[nH]c3ccccc23)C(=O)N[C@@H](CO)C(=O)N[C@@H](Cc2c[nH]c3ccccc23)C(=O)N1C` [peptide-57] ({CH2CO}-F[NMeA]NPHL[Sar]WSW[NMeNle][NMeNle]RCG-NH2; thioether N-14; N-terminus and C-terminus assumed) was tested. Which “melting temperature of PD-L1 (Tm)” value (PD-L1 [1]) did it give?
A: 51.6 °C

Q: What about the “stabilization of PD-L1 against thermal induced unfolding” value (PD-L1 [1]) of the same compound?
A: 14 °C

Q: And the “binding site on PD-L1” value (PD-L1 [2])?
A: bind to PD-L1 partially at the site of the PD-1 interaction

Q: How did the “melting temperature of PD-L1 (Tm)” value (PD-L1 [1]) turn out when `CCCC[C@H]1C(=O)N(C)CC(=O)N[C@@H](CC(=O)O)C(=O)N[C@@H](C(C)C)C(=O)N(C)[C@@H](Cc2ccccc2)C(=O)N[C@@H](Cc2ccc(O)cc2)C(=O)N(C)CC(=O)N[C@@H](Cc2c[nH]c3ccccc23)C(=O)N[C@@H](Cc2ccc(O)cc2)C(=O)N[C@@H](CC(C)C)C(=O)N[C@H](C(=O)NCC(N)=O)CSCC(=O)N[C@@H](Cc2ccccc2)C(=O)N(C)[C@@H](Cc2ccccc2)C(=O)N1C` [peptide-71] ({CH2CO}-F[NMeF][NMeNle][Sar]DV[NMeF]Y[Sar]WYLCG-NH2; thioether N-13; N-terminus and C-terminus assumed) was run?
A: 56.6 °C

Q: And the “stabilization of PD-L1 against thermal induced unfolding” value (PD-L1 [1])?
A: 19 °C

Q: What about the “binding site on PD-L1” value (PD-L1 [2]) of the same compound?
A: bind to PD-L1 partially at the site of the PD-1 interaction

Reference: publication PMC6400216 (Angewandte Chemie (International ed. in English), 2017)
